According to ChEMBL document CHEMBL6153174, “Design and Synthesis of Novel Deazapurine DNMT 1 Inhibitors with In Vivo Efficacy in DLBCL” (J Med Chem, 2025):

Tests used:
U2932 = assay: Antiproliferative activity against human U2932 cells assessed as inhibition of cell viability measured after 72 hrs by MTT assay; format: functional, cell-based; settings: U2932, 72 h
[1] = Antiproliferative activity against human NK-YS cells assessed as inhibition of cell viability measured after 72 hrs by MTT assay; format: functional, cell-based
Jurkat = assay: Antiproliferative activity against human Jurkat cells assessed as inhibition of cell viability measured after 72 hrs by MTT assay; format: functional, cell-based
TMD8 = assay: Antiproliferative activity against human TMD8 cells assessed as inhibition of cell viability measured after 72 hrs by MTT assay; format: functional, cell-based; settings: TMD8, 72 h
DOHH-2 = assay: Antiproliferative activity against human DOHH-2 cells assessed as inhibition of cell viability measured after 72 hrs by MTT assay; format: functional, cell-based; settings: DOHH-2, 72 h
[2] = target: T1, DNA (cytosine-5)-methyltransferase 1 (Homo sapiens, UniProt P26358); assay: Inhibition of DNMT1 (unknown origin) at 5 uM preincubated for 15 mins followed by substrate and [3H-SAM] addition and measured after 60 mins by microbeta analysis relative to control; settings: time 75.0 min
[3] = target: T2, DNA (cytosine-5)-methyltransferase 3A (Homo sapiens, UniProt Q9Y6K1); assay: Inhibition of DNMT3A (unknown origin) preincubated for 15 mins followed by substrate and [3H-SAM] addition and measured after 60 mins by microbeta analysis
[4] = target: T3, Histone-lysine N-methyltransferase EHMT2 (Homo sapiens, UniProt Q96KQ7); assay: Inhibition of G9a (unknown origin) preincubated for 15 mins followed by substrate and [3H-SAM] addition and measured after 60 mins by microbeta analysis
T3 sequence (Q96KQ7 whole entry): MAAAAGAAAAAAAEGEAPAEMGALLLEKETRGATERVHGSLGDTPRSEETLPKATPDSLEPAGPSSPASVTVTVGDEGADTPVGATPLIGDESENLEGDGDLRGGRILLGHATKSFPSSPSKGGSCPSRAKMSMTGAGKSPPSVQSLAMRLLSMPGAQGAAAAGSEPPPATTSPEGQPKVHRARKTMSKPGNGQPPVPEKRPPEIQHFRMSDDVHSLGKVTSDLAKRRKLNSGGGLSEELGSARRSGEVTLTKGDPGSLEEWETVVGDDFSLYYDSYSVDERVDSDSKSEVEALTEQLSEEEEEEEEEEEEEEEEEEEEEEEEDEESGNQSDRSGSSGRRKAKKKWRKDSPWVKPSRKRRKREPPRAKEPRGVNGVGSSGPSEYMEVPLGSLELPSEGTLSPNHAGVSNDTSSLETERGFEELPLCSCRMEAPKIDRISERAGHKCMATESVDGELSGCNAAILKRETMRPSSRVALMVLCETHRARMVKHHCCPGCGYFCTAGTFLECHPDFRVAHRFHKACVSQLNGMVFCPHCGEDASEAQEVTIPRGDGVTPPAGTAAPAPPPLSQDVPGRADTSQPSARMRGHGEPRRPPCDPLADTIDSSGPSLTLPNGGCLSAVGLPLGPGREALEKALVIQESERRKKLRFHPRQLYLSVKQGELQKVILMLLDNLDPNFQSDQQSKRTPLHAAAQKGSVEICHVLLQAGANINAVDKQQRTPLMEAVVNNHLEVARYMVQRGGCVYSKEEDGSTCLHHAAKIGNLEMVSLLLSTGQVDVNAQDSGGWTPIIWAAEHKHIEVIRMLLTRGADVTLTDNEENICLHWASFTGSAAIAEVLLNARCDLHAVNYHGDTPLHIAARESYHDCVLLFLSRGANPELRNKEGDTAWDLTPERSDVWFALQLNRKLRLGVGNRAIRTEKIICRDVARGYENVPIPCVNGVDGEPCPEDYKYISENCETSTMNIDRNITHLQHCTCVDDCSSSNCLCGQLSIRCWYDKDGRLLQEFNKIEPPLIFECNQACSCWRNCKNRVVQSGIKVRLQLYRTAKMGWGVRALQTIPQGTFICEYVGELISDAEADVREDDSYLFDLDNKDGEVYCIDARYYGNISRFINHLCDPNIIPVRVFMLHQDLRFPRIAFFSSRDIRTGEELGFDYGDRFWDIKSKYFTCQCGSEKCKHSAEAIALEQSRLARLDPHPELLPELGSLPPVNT

[5] = Volume of distribution at steady state in Sprague-Dawley rat at 10 mg/kg, po measured upto 24 hrs by LC/MS/MS analysis; format: ADME, organism-based; settings: in vivo
[6] = Cmax in Sprague-Dawley rat at 10 mg/kg, iv measured upto 24 hrs by LC/MS/MS analysis; format: ADME, organism-based; settings: in vivo
[7] = AUC (0 to t) in Sprague-Dawley rat at 10 mg/kg, iv measured upto 24 hrs by LC/MS/MS analysis; format: ADME, organism-based; settings: in vivo
MV4-11 = assay: Antiproliferative activity against human MV4-11 cells assessed as inhibition of cell viability measured after 72 hrs by MTT assay; format: functional, cell-based; settings: MV4-11, 72 h
U-937 = assay: Antiproliferative activity against human U-937 cells assessed as inhibition of cell viability measured after 72 hrs by MTT assay; format: functional, cell-based; settings: U-937, 72 h
[8] = Terminal elimination half life in Sprague-Dawley rat at 10 mg/kg, iv measured upto 24 hrs by LC/MS/MS analysis; format: ADME, organism-based; settings: in vivo, read-out: beta t1/2 (converted)
[9] = target: T4, Histone-lysine N-methyltransferase EHMT2 (Homo sapiens) (UniProt Q96KQ7); assay: Inhibition of G9a (unknown origin) at 5 uM preincubated for 15 mins followed by substrate and [3H-SAM] addition and measured after 60 mins by microbeta analysis relative to control; settings: time 75.0 min
T4 sequence (whole entry): T3 sequence (Q96KQ7 whole entry)

[10] = Clearance in Sprague-Dawley rat at 10 mg/kg, iv measured upto 24 hrs by LC/MS/MS analysis; format: ADME, organism-based; settings: in vivo
[11] = Apparent clearance during terminal phase in Sprague-Dawley rat at 10 mg/kg, po measured upto 24 hrs by LC/MS/MS analysis; format: ADME, organism-based; settings: in vivo, read-out: CLz/F (converted)
[12] = Volume of distribution at steady state in Sprague-Dawley rat at 10 mg/kg, iv measured upto 24 hrs by LC/MS/MS analysis; format: ADME, organism-based; settings: in vivo, read-out: Vdss
[13] = target: T5, DNA (cytosine-5)-methyltransferase 3B (Homo sapiens, UniProt Q9UBC3); assay: Inhibition of DNMT3B (unknown origin) preincubated for 15 mins followed by substrate and [3H-SAM] addition and measured after 60 mins by microbeta analysis
[14] = Terminal elimination half life in Sprague-Dawley rat at 10 mg/kg, po measured upto 24 hrs by LC/MS/MS analysis; format: ADME, organism-based; settings: in vivo, read-out: beta t1/2 (converted)
[15] = AUC (0 to t) in Sprague-Dawley rat at 10 mg/kg, po measured upto 24 hrs by LC/MS/MS analysis; format: ADME, organism-based; settings: in vivo
[16] = Cmax in Sprague-Dawley rat at 10 mg/kg, po measured upto 24 hrs by LC/MS/MS analysis; format: ADME, organism-based; settings: in vivo
[17] = target: T2, DNA (cytosine-5)-methyltransferase 3A; assay: Inhibition of DNMT3A (unknown origin) at 5 uM preincubated for 15 mins followed by substrate and [3H-SAM] addition and measured after 60 mins by microbeta analysis relative to control; settings: time 75.0 min
[18] = target: T1, DNA (cytosine-5)-methyltransferase 1; assay: Inhibition of DNMT1 (unknown origin) preincubated for 15 mins followed by substrate and [3H-SAM] addition and measured after 60 mins by microbeta analysis
[19] = Oral bioavailability in Sprague-Dawley rat at 10 mg/kg measured upto 24 hrs by LC/MS/MS analysis; format: ADME, organism-based; settings: in vivo
[20] = target: T5, DNA (cytosine-5)-methyltransferase 3B; assay: Inhibition of DNMT3B (unknown origin) at 5 uM preincubated for 15 mins followed by substrate and [3H-SAM] addition and measured after 60 mins by microbeta analysis relative to control; settings: time 75.0 min
[21] = target: T1, DNA (cytosine-5)-methyltransferase 1; assay: Inhibition of DNMT1 (unknown origin) at 1 uM preincubated for 15 mins followed by substrate and [3H-SAM] addition and measured after 60 mins by microbeta analysis relative to control; settings: time 75.0 min

T2 sequence (Q9Y6K1 whole entry, looked up): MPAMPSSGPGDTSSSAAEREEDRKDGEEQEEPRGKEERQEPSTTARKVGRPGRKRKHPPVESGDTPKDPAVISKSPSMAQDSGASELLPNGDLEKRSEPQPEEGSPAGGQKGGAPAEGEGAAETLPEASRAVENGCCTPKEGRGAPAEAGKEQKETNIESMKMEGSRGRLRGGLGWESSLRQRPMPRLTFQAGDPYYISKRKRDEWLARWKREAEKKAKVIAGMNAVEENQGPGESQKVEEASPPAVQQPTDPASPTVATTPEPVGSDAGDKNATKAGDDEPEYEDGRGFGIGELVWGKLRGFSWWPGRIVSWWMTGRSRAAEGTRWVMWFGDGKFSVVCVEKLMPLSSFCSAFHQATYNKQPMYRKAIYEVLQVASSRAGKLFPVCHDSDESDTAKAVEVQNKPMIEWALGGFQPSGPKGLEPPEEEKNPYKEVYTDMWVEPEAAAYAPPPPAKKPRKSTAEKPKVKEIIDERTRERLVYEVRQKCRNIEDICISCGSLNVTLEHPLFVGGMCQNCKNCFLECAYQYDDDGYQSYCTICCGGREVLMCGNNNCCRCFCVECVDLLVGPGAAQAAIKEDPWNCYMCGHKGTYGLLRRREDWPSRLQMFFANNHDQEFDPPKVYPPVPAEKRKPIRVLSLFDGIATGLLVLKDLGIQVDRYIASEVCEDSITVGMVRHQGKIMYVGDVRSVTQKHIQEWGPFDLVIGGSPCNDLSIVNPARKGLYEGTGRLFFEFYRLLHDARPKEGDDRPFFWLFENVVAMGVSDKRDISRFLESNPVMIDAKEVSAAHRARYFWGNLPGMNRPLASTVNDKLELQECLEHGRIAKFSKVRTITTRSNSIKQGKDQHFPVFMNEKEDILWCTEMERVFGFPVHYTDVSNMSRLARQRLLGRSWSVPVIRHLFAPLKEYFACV
T1 sequence (P26358 whole entry): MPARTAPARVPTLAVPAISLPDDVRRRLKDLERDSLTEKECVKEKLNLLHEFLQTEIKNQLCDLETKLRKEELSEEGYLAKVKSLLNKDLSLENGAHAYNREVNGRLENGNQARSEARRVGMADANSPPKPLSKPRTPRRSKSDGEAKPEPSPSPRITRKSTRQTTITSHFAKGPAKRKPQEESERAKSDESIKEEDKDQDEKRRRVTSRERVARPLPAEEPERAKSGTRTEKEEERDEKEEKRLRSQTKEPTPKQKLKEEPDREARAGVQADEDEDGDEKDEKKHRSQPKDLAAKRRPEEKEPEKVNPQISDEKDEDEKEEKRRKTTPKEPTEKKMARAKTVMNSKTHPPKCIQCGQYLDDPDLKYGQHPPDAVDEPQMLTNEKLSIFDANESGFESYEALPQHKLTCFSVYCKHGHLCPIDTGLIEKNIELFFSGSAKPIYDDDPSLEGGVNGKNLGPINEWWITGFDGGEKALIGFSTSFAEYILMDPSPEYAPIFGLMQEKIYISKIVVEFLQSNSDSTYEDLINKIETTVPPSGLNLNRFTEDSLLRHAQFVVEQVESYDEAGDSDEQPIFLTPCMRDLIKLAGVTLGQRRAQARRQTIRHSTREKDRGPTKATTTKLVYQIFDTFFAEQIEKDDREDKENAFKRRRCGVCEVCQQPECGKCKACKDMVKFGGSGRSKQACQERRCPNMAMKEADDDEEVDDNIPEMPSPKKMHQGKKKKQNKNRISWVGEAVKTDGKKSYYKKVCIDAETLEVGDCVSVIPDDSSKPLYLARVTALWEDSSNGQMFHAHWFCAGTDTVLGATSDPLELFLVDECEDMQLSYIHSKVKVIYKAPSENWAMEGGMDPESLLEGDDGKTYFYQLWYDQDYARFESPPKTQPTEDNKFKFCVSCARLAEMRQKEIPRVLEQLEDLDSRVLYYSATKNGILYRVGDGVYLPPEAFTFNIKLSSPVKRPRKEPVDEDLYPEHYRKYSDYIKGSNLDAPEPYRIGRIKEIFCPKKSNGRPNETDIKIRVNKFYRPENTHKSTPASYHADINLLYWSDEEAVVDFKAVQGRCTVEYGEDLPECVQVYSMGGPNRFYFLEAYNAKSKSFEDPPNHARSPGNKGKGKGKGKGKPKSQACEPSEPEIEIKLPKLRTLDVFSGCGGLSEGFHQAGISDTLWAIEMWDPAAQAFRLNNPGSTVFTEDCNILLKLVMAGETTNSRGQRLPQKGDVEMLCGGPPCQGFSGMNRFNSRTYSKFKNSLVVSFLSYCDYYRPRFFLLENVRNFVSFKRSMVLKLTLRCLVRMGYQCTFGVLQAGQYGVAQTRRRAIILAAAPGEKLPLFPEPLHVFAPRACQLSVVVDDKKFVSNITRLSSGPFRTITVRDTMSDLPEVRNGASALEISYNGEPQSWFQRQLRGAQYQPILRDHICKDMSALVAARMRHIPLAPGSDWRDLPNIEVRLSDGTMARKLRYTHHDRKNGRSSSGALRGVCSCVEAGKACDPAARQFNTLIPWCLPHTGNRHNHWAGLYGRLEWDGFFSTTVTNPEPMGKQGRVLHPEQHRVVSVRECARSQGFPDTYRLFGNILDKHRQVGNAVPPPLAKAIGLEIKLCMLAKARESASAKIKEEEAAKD

In the case of `CCc1c(C#N)c(SC(C(N)=O)c2ccccc2)nc(N2CCC(N)CC2)c1C#N` (stereo not drawn), the IC50 (U2932) is reported as 28.9 µM, the IC50 [1] is reported as 16.7 µM and the IC50 (Jurkat) is reported as 19.8 µM. For the same molecule, the IC50 (TMD8) was 21.4 µM and the IC50 (DOHH-2) was 11.1 µM.
In the case of `CN1CCC(Nc2nc(-c3ccc(C#N)c(F)c3)nc3c2ccn3CCCN2CCCC2)CC1`, the inhibition [2] is reported as 82%, the IC50 [3] is reported as 10.9 µM and the IC50 [4] is reported as > 20 µM. For the same molecule, the Vdss [5] was 673.5 L/kg, the Cmax [6] was 698 ng/mL and the AUCt ([7]; iv, 10 mg/kg, 24 h) was 2775.5 ng·h/mL. For the same molecule, the IC50 (MV4-11) was 2.05 µM, the IC50 (U-937) was 1.2 µM and the half-life [8] was 12.1 h. For the same molecule, the inhibition [9] was -1.3%, the clearance [10] was 21.7 mL/min/kg and the CL/F [11] was 843 mL/min/kg. For the same molecule, the Vd [12] was 22.4 L/kg, the IC50 [13] was 12.4 µM and the half-life [14] was 12.3 h. For the same molecule, the AUCt ([15]; po, 10 mg/kg, 24 h) was 302.6 ng·h/mL, the Cmax [16] was 29.3 ng/mL and the inhibition [17] was 11%. For the same molecule, the IC50 [18] was 1.22 µM, the F ([19]; po, 10 mg/kg, 24 h) was 5.4% and the inhibition [20] was 2.3%.
For `CN1CCN(c2cc(NCC3CCN(C(=O)C4CCC4)CC3)c3cnn(CCCN4CCOCC4)c3c2)CC1`, the IC50 (MV4-11) was 34.5 µM and the inhibition [21] was 9.3%.
For `CN1CCC(Nc2nc(-c3ccncc3)nc3c2ccn3CCCN2CCCC2)CC1`, the inhibition [2] was 69%, the IC50 [3] was > 20 µM and the IC50 [4] was > 20 µM. It also gave an IC50 (MV4-11) of 7.7 µM, an IC50 (U-937) of 10.1 µM and an inhibition [9] of 1.3%. For the same molecule, the IC50 [13] was > 20 µM, the inhibition [17] was 8.5% and the IC50 [18] was 3.94 µM. It also gave an inhibition [20] of 3.5%.
Molecule `CN1CCC(Nc2nc(-c3ccc(F)nc3)nc3c2ccn3CCCN2CCCC2)CC1` has an inhibition [2] of 72%, an IC50 [3] of 3.13 µM and a Vdss [5] of 303.6 L/kg. For the same molecule, the Cmax [6] was 436 ng/mL, the AUC(0-t) at 24 h ([7]; Sprague-Dawley) was 2080 ng·h/mL and the IC50 (MV4-11) was 3.87 µM. For the same molecule, the IC50 (U-937) was 2.61 µM, the half-life [8] was 7.8 h and the inhibition [9] was 4.2%. It also gave a clearance [10] of 45 mL/min/kg, a CL/F [11] of 1050 mL/min/kg and a Vd [12] of 33.8 L/kg. The IC50 [13] was > 20 µM, the half-life [14] was 3.5 h and the AUC(0-t) at 24 h ([15]; Sprague-Dawley) was 116 ng·h/mL. For the same molecule, the Cmax [16] was 17.3 ng/mL, the inhibition [17] was 6.8% and the bioavailability ([19]; Sprague-Dawley) was 6.5%.
In the case of `CN1CCN(c2cc(NCC3CCN(C(=O)C(C)(C)C)CC3)c3cnn(CCCN4CCOCC4)c3c2)CC1`, the IC50 (MV4-11) is reported as 24.4 µM and the inhibition [21] is reported as 41%.
